9 compounds from ChEMBL document CHEMBL2380194, “Structure-based design of HSPA5 inhibitors: from peptide to small molecule inhibitors” (Bioorg Med Chem Lett, 2013) can be followed below.

Calls of active or inactive are those of the source. No cut-off for these calls is given here.

A short description of data set [1]: Cytotoxicity against human DK1 cells assessed as growth inhibition at 50 uM after 20 mins by green fluorescence assay relative to control. The class given is functional. The following applies: DK1, 20 min, read-out: GI.
Data set [2] is described as follows: Cytotoxicity against human DK1 cells assessed as growth inhibition at 25 uM after 20 mins by green fluorescence assay relative to control. The class given is functional. The following applies: DK1, 20 min, read-out: GI.
A short description of data set [3]: Cytotoxicity against human PNT2 cells assessed as cell viability after 72 hrs by cell titre glo assay. The class given is cell-based. The conditions noted are these: pnt2, 72 h.
Data set [4] deals with HCT-116. Description: Cytotoxicity against human HCT116 cells assessed as cell viability after 72 hrs by cell titre glo assay. Format: functional, cell-based.
Data set [5] deals with HCT-116. Description: Cytotoxicity against human HCT116 cells assessed as cell viability at 0.1 to 100 uM after 48 hrs by cell titre glo assay. Format: functional, cell-based.
Data set [6] can be described thus: Cytotoxicity against human PNT2 cells assessed as cell viability at 50 uM after 72 hrs by cell titre glo assay. The class given is cell-based. The conditions noted are these: pnt2, 72 h.
For data set [7], the system named is HCT-116. Description: Cytotoxicity against human HCT116 cells assessed as cell viability at 50 uM after 72 hrs by cell titre glo assay relative to control. The following applies: HCT-116, 72 h, read-out: Activity. The class given is functional.
Data set [8] in a line: Cytotoxicity against human PNT2 cells assessed as growth inhibition at 0.1 to 10 uM after 72 hrs by cell titre glo assay. Format: cell-based. The following applies: pnt2, 72 h.
The subject of data set [9] is HCT-116. Briefly: Cytotoxicity against human HCT116 cells assessed as cell survival at 25 uM after 72 hrs by cell titre glo assay relative to control. The class given is functional. The conditions noted are these: HCT-116, 72 h, read-out: Survival.

Turning to `NC(CSC1(c2ccc(Cl)cc2)c2ccccc2-c2ccccc21)C(=O)O` (configuration not stated), in data set [1], the inhibition of growth at 50 µM turned out to be 50%. Also, the inhibition of growth at 25 µM in data set [2] was found to be 35%. Besides, the Activity result in data set [3] and in [4] was “Dose-dependent effect” throughout. The result in [5] was Active.

As for `O=C1c2ccccc2NC(c2cc(Cl)cc(Cl)c2O)N1CCc1ccccn1` (configuration not stated), in data set [6], the Activity result is “Non-toxic”. The viability at 50 µM in [7] was found to be 50%. Moreover, in data set [5], the outcome was Active.

Turning to `NS(=O)(=O)c1cc2c(cc1Cl)NC(Cc1ccccc1)NS2(=O)=O` (configuration not stated), in data set [5], the outcome was inactive.

As to `OC(c1c(Cl)cc(Cl)c2nc(C34CC5CC(CC(C5)C3)C4)ccc12)C1CCCCN1` (configuration not stated), the “growth inhibition (GI)” value in data set [8] is on record as “Toxic”. For the same compound, in [5], the result was Active.

For the compound `OC(c1cc(-c2ccccc2)nc2c1ccc1ccccc12)C1CCCCN1` (configuration not stated), in data set [2], the inhibition of growth at 25 µM worked out at 50%. Moreover, the Activity entry in data set [3] and in [4] was “Dose-dependent effect” each time. In addition, the viability at 25 µM in data set [9] is 0%. The outcome in data set [5] was Active.

`CC[C@@]1(O)C(=O)OCc2c1cc1n(c2=O)Cc2cc3c(CN(C)C)c(O)ccc3nc2-1` [TOPOTECAN]: in data set [8], the “growth inhibition (GI)” value was “Toxic”. The result in [5] was Active.

`CC(C)c1ccc(C(C2=C(O)C3C=CC=CC3OC2=O)c2c(O)c3ccccc3oc2=O)cc1` (configuration not stated): the outcome in data set [5] was Active.

As to `COc1ccc2nc3cc(Cl)ccc3c(Nc3ccc(O)c(CN4CCN(C)CC4)c3)c2c1`, the inhibition of growth at 25 µM in data set [2] is 50%. Besides, the Activity result in [3] and in [4] was “Dose-dependent effect” in each case. In addition, the viability at 25 µM in [9] amounted to 18%. The outcome in data set [5] was Active.

For `Cc1cc(C)c2nc3c(c(C(O)C4CCCCN4)c2c1)CC/C3=C\c1ccc(Cl)cc1` (configuration not stated), the Activity entry in data set [6] was “Non-toxic”. Further, in data set [7], the viability at 50 µM is 50%. Further, the outcome in [5] was Active.
